Data as given in US7786045B2, “Aryl ether compounds and their preparation and use thereof” (Sinochem Corporation, priority 2005, dated 2010).

Experiments:
[1] = tested on: wheat powdery mildew; assay: Whole-plant fungicidal test, curative activity, wheat powdery mildew; type: in vivo, Erysiphe graminis; conditions: for inhibition at 0.39 µg/mL / inhibition at 0.78 µg/mL / inhibition at 1.56 µg/mL / inhibition at 3.125 µg/mL / inhibition at 6.25 µg/mL / inhibition at 12.5 µg/mL: Triticum aestivum, 96 h, read-out: 4 day curative activity (%) against wheat powdery mildew
[2] = tested on: cucumber downy mildew (Pseudoperonospora cubenis); assay: Whole-plant fungicidal test, cucumber downy mildew; type: in vivo, Pseudoperonospora cubensis
[3] = tested on: wheat powdery mildew (BLumeria graminis); assay: Whole-plant fungicidal test, protectant activity, wheat powdery mildew; type: in vivo; conditions: for control against wheat powdery mildew: 500 mg/L
[4] = tested on: cucumber anthracnose (Colletotrichum lagenarium); assay: Whole-plant fungicidal test, cucumber anthracnose; type: in vivo
[5] = tested on: rice sheath blight (Rhizoctonia solani); assay: Whole-plant fungicidal test, protectant activity, rice sheath blight; type: in vivo
[6] = tested on: rice blast (Pyricularia oryzae); type: in vivo; conditions: in words
[7] = tested on: tomato late blight (Phytophthora infestans); type: in vivo; conditions: in words
[8] = tested on: cucumber powdery mildew (Sphaerotheca fuliginea); assay: Whole-plant fungicidal test, cucumber powdery mildew; type: in vivo; conditions: in words
[9] = tested on: cucumber scab (Cladosporium cucumerinum); assay: Whole-plant fungicidal test, cucumber scab; type: in vivo; conditions: in words
[10] = tested on: apple alternaria rot (valsa mali); assay: Whole-plant fungicidal test, apple alternaria rot; type: in vivo; conditions: in words
[11] = tested on: rape sclerotinia stem rot (Sclerotinia sclerotiorum); assay: Whole-plant fungicidal test, rape sclerotinia stem rot; type: in vivo; conditions: in words
[12] = tested on: tomato cercospora leaf mold (Fulvia fulva); assay: Whole-plant fungicidal test, tomato cercospora leaf mold; type: in vivo; conditions: in words
[13] = tested on: corn southern leaf blight (Helminthosporium maydis); assay: Whole-plant fungicidal test, corn southern leaf blight; type: in vivo; conditions: in words
Description: Protectant and curative activity of experimental compounds are tested with whole plants. […] For the protectant method, test solution was sprayed onto potted plant. Pathogen inoculation was carried out after 24 hours then plants were hold in growth chambers containing constant temperature and moisture for effect. When untreated plant was under desirable disease severity (after 1 week approximately), assessment were carried out by visual observation. Test plant inoculated with fungus for 4 days are sprayed with the solution of a compound and then cultured in green house for 3-4 days. The curative activity is assessed based on the control plant's index of disease.

[14] = tested on: wheat head blight (Fusarium graminearum); type: in vivo; conditions: in words
[15] = tested on: diamond backmoth (Plutella xylostella); assay: Insecticidal activity, diamond backmoth, spraying; conditions: 200 mg/L; mortality after two days
Description: (§1) Determination of insecticidal and acaricidal activities of selected compounds were carried out by following procedure:
(§2) Technical samples were dissolved in mixed solvent (acetone:methanol=1:1), and diluted to required concentration with water containing 0.1% of tween 80.
(§3) The second instar larvae of armyworm (Leucania separata), diamond backmoth (Plutella xylostella) and culex mosquitoes (Culex pipiens pallens), green peach aphids (Myzus persicae) and mite (Tetranychus cinnabarinus) were used in biological test. The method was employed either spraying by airbrush or immersing (larvae of culex mosquitoes). A test solution (0.5 mL) was sprayed at the pressure of 10 psi (about 0.7 kg/cm^2). Percent mortality was determined after two days.

[16] = tested on: cucumber grey mold (Botrytis cinerea); assay: Whole-plant fungicidal test, cucumber grey mold; type: in vivo; conditions: 500 mg/L
[17] = tested on: green peach aphids (Myzus persicae); assay: Insecticidal activity, green peach aphids, spraying; conditions: 200 mg/L; mortality after two days
Description: as §1, §2, §3

Compound: COC(=O)N(OC)c1ccccc1COc1ccn(-c2ccc(Cl)cc2)n1 [pyraclostrobin]
- inhibition at 0.39 µg/mL ([1]; 0.39 mg/L): 0%
- inhibition at 0.78 µg/mL ([1]; 0.78 mg/L): 25%
- inhibition at 1.56 µg/mL ([1]; 1.56 mg/L): 60%
- inhibition at 3.125 µg/mL ([1]; 3.125 mg/L): 85%
- inhibition at 6.25 µg/mL ([1]; 6.25 mg/L): 100%
- inhibition at 12.5 µg/mL ([1]; 12.5 mg/L): 100%

Compound: CON=C(C(=O)OC)c1ccccc1COc1cc(-c2cccs2)nn1C [Compound 391]
- control against cucumber downy mildew ([2]; 500 mg/L): 90%

Compound: CO/N=C(/C(=O)OC)c1ccccc1COc1ccccc1C [Kresoxim methyl, reference compound]
- inhibition at 0.39 µg/mL ([3]; Blumeria graminis, 24 h, 0.39 mg/L, read-out: 1 day protection activity (%) against wheat powdery mildew): 0%
- inhibition at 0.78 µg/mL ([3]; Blumeria graminis, 24 h, 0.78 mg/L, read-out: 1 day protection activity (%) against wheat powdery mildew): 15%
- inhibition at 1.56 µg/mL ([3]; Blumeria graminis, 24 h, 1.56 mg/L, read-out: 1 day protection activity (%) against wheat powdery mildew): 40%
- inhibition at 3.125 µg/mL ([3]; Blumeria graminis, 24 h, 3.125 mg/L, read-out: 1 day protection activity (%) against wheat powdery mildew): 70%
- inhibition at 6.25 µg/mL ([3]; Blumeria graminis, 24 h, 6.25 mg/L, read-out: 1 day protection activity (%) against wheat powdery mildew): 98%
- inhibition at 12.5 µg/mL ([3]; Blumeria graminis, 24 h, 12.5 mg/L, read-out: 1 day protection activity (%) against wheat powdery mildew): 100%
- inhibition at 25 µg/mL ([3]; Blumeria graminis, 24 h, 25 mg/L, read-out: 1 day protection activity (%) against wheat powdery mildew): 100%
- inhibition at 0.39 µg/mL ([1]; 0.39 mg/L): 0%
- inhibition at 0.78 µg/mL ([1]; 0.78 mg/L): 0%
- inhibition at 1.56 µg/mL ([1]; 1.56 mg/L): 10%
- inhibition at 3.125 µg/mL ([1]; 3.125 mg/L): 15%
- inhibition at 6.25 µg/mL ([1]; 6.25 mg/L): 20%
- inhibition at 12.5 µg/mL ([1]; 12.5 mg/L): 100%

Compound: COC(=O)N(OC)c1ccccc1COc1c(C)c(-c2ccccc2)nn1C [Compound 63]
- 1 day protection activity (%) against wheat powdery mildew ([3]; 0.19 mg/L): 55%
- 1 day protection activity (%) against wheat powdery mildew ([3]; 0.39 mg/L): 75%
- 1 day protection activity (%) against wheat powdery mildew ([3]; 0.78 mg/L): 95%
- 1 day protection activity (%) against wheat powdery mildew ([3]; 1.56 mg/L): 100%
- 1 day protection activity (%) against wheat powdery mildew ([3]; 3.125 mg/L): 100%
- 1 day protection activity (%) against wheat powdery mildew ([3]; 6.25 mg/L): 100%
- 1 day protection activity (%) against wheat powdery mildew ([3]; 12.5 mg/L): 100%
- 1 day protection activity (%) against wheat powdery mildew ([3]; 25 mg/L): 100%
- control against wheat powdery mildew [3]: 100%
- activity against wheat powdery mildew ([3]; in words): excellent activity
- control against cucumber downy mildew ([2]; 25 mg/L): 100%
- control against cucumber downy mildew ([2]; 500 mg/L): 100%
- activity against cucumber downy mildew ([2]; in words): excellent activity
- control against cucumber anthracnose ([4]; 1.56 mg/L): 100%
- control against cucumber anthracnose ([4]; 100 mg/L): 100%
- activity against cucumber anthracnose ([4]; in words): excellent activity
- 1 day protection activity (%) against rice sheath blight ([5]; 1.5625 mg/L): 55%
- 1 day protection activity (%) against rice sheath blight ([5]; 3.125 mg/L): 60%
- 1 day protection activity (%) against rice sheath blight ([5]; 6.25 mg/L): 65%
- 1 day protection activity (%) against rice sheath blight ([5]; 12.5 mg/L): 75%
- 1 day protection activity (%) against rice sheath blight ([5]; 25 mg/L): 80%
- 1 day protection activity (%) against rice sheath blight ([5]; 50 mg/L): 100%
- 1 day protection activity (%) against rice sheath blight ([5]; 100 mg/L): 100%
- activity against rice sheath blight ([5]; in words): excellent activity
- 4 day curative activity (%) against wheat powdery mildew ([1]; 0.39 mg/L): 50%
- 4 day curative activity (%) against wheat powdery mildew ([1]; 0.78 mg/L): 80%
- 4 day curative activity (%) against wheat powdery mildew ([1]; 1.56 mg/L): 100%
- 4 day curative activity (%) against wheat powdery mildew ([1]; 3.125 mg/L): 100%
- 4 day curative activity (%) against wheat powdery mildew ([1]; 6.25 mg/L): 100%
- 4 day curative activity (%) against wheat powdery mildew ([1]; 12.5 mg/L): 100%
- activity against rice blast [6]: excellent activity
- activity against tomato late blight [7]: excellent activity
- activity against cucumber powdery mildew [8]: excellent activity
- activity on cucumber scab [9]: good activity
- activity on apple alternaria rot [10]: good activity
- activity on rape sclerotinia stem rot [11]: good activity
- activity against tomato cercospora leaf mold [12]: moderate activity
- activity against corn southern leaf blight [13]: moderate activity
- activity against wheat head blight [14]: moderate activity
- control of diamond backmoth [15]: 100%

Compound: COC(=O)N(OC)c1ccccc1COc1cc(-c2ccc(Cl)nc2)nn1C [Compound 21]
- control against wheat powdery mildew [3]: 100%
- control against cucumber grey mold [16]: 100%

Compound: COC(=O)N(OC)c1ccccc1COc1c(C)c(-c2ccc(C)cc2)nn1C [Compound 78]
- control against wheat powdery mildew [3]: 100%
- control against cucumber downy mildew ([2]; 25 mg/L): 100%
- control against cucumber downy mildew ([2]; 500 mg/L): 100%

Compound: COC(=O)N(OC)c1ccccc1COc1cc(-c2ccccc2Cl)nn1C [Compound 20]
- control against wheat powdery mildew [3]: 100%
- control against cucumber downy mildew ([2]; 25 mg/L): 100%
- control against cucumber downy mildew ([2]; 500 mg/L): 100%

Compound: COC(=O)NC(=S)Nc1ccccc1NC(=S)NC(=O)OC [triophanate-methyl, reference compound]
- 1 day protection activity (%) against rice sheath blight ([5]; 1.5625 mg/L): 0%
- 1 day protection activity (%) against rice sheath blight ([5]; 3.125 mg/L): 0%
- 1 day protection activity (%) against rice sheath blight ([5]; 6.25 mg/L): 0%
- 1 day protection activity (%) against rice sheath blight ([5]; 12.5 mg/L): 0%
- 1 day protection activity (%) against rice sheath blight ([5]; 25 mg/L): 20%
- 1 day protection activity (%) against rice sheath blight ([5]; 50 mg/L): 55%
- 1 day protection activity (%) against rice sheath blight ([5]; 100 mg/L): 75%

Compound: COC(=O)N(OC)c1ccccc1COc1cc(-c2ccc(C)cc2)nn1C [Compound 16]
- control against wheat powdery mildew [3]: 100%

Compound: CC(C)(C)C(O)(CCc1ccc(Cl)cc1)Cn1cncn1 (stereo not drawn) [tebuconazole]
- inhibition at 0.39 µg/mL ([1]; 0.39 mg/L): 0%
- inhibition at 0.78 µg/mL ([1]; 0.78 mg/L): 0%
- inhibition at 1.56 µg/mL ([1]; 1.56 mg/L): 15%
- inhibition at 3.125 µg/mL ([1]; 3.125 mg/L): 45%
- inhibition at 6.25 µg/mL ([1]; 6.25 mg/L): 70%
- inhibition at 12.5 µg/mL ([1]; 12.5 mg/L): 85%

Compound: COC=C(C(=O)OC)c1ccccc1-c1cc(Oc2cc(-c3ccc(Cl)cc3)nn2C(C)C)ncn1 [Compound 194]
- control against cucumber downy mildew ([2]; 500 mg/L): 100%

Compound: COC(=O)N(OC)c1ccccc1COc1cc(-c2ccc(SC)cc2)nn1C [Compound 8]
- control against cucumber downy mildew ([2]; 500 mg/L): 100%

Compound: COC(=O)N(OC)c1ccccc1COc1cc(-c2ccc(Cl)cc2Cl)nn1C [Compound 10]
- control against wheat powdery mildew [3]: 100%
- control against cucumber downy mildew ([2]; 500 mg/L): 100%

Compound: COC(=O)N(OC)c1ccccc1COc1cc(-c2ccc(Cl)cc2)nn1C(C)C [Compound 11]
- control against cucumber downy mildew ([2]; 500 mg/L): 90%

Compound: COC(=O)N(OC)c1ccccc1COc1cc(-c2ccc(Br)cc2)nn1C [Compound 15]
- control against cucumber downy mildew ([2]; 25 mg/L): 100%
- control against cucumber downy mildew ([2]; 500 mg/L): 100%
- control of green peach aphids [17]: 90%

Compound: CNC(=O)C(=NOC)c1ccccc1COc1cc(-c2cccs2)nn1C [Compound 415]
- control against cucumber downy mildew ([2]; 500 mg/L): 100%

Compound: COC=C(C(=O)OC)c1ccccc1COc1cc(-c2cccs2)nn1C [Compound 367]
- control against cucumber downy mildew ([2]; 500 mg/L): 100%

Compound: COC(=O)N(OC)c1ccccc1COc1cc(-c2ccccc2)nn1C [Compound 1]
- control against cucumber downy mildew ([2]; 500 mg/L): 100%
